{"source": "ChEMBL document CHEMBL1201862", "about": "“PubChem BioAssay data set” (2004)", "test_in_all_cases": "NCI-60 cell line screen, 48 h", "key": {"OVCAR-8": {"tested_on": "OVCAR-8"}, "SK-MEL-28": {"tested_on": "SK-MEL-28"}, "NCI-H522": {"tested_on": "NCI-H522"}, "SW-620": {"tested_on": "SW-620"}, "A549": {"tested_on": "A549"}, "Hs-578T": {"tested_on": "Hs-578T"}, "M14": {"tested_on": "M14"}, "MCF7": {"tested_on": "MCF7"}, "IGROV-1": {"tested_on": "IGROV-1"}, "MDA-N": {"tested_on": "MDA-N"}, "SF-295": {"tested_on": "SF-295"}, "SN12C": {"tested_on": "SN12C"}, "HOP-92": {"tested_on": "HOP-92"}, "OVCAR-3": {"tested_on": "OVCAR-3"}, "K562": {"tested_on": "K562"}, "BT-549": {"tested_on": "BT-549"}, "HCT-15": {"tested_on": "HCT-15"}, "SNB-75": {"tested_on": "SNB-75"}, "SK-MEL-2": {"tested_on": "SK-MEL-2"}, "HCT-116": {"tested_on": "HCT-116"}, "ACHN": {"tested_on": "ACHN"}, "MDA-MB-231": {"tested_on": "MDA-MB-231"}, "SF-268": {"tested_on": "SF-268"}, "SF-539": {"tested_on": "SF-539"}, "SK-OV-3": {"tested_on": "SK-OV-3"}, "A498": {"tested_on": "A498"}, "CCRF-CEM": {"tested_on": "CCRF-CEM"}, "NCI/ADR-RES": {"tested_on": "NCI/ADR-RES"}, "UACC-62": {"tested_on": "UACC-62"}, "U-251": {"tested_on": "U-251"}, "OVCAR-5": {"tested_on": "OVCAR-5"}, "PC-3": {"tested_on": "PC-3"}, "MDA-MB-435": {"tested_on": "MDA-MB-435"}, "NCI-H226": {"tested_on": "NCI-H226"}, "NCI-H23": {"tested_on": "NCI-H23"}, "DU-145": {"tested_on": "DU-145"}, "HL-60": {"tested_on": "HL-60"}, "UO-31": {"tested_on": "UO-31"}, "RXF 393": {"tested_on": "RXF 393"}, "SK-MEL-5": {"tested_on": "SK-MEL-5"}, "UACC-257": {"tested_on": "UACC-257"}, "COLO 205": {"tested_on": "COLO 205"}, "HOP-62": {"tested_on": "HOP-62"}, "Malme-3M": {"tested_on": "Malme-3M"}, "OVCAR-4": {"tested_on": "OVCAR-4"}, "TK-10": {"tested_on": "TK-10"}, "SNB-19": {"tested_on": "SNB-19"}, "KM12": {"tested_on": "KM12"}, "T47D": {"tested_on": "T47D"}, "SR": {"tested_on": "SR"}, "NCI-H460": {"tested_on": "NCI-H460"}, "786-0": {"tested_on": "786-0"}, "HCC 2998": {"tested_on": "HCC 2998"}, "MOLT-4": {"tested_on": "MOLT-4"}, "LOX IMVI": {"tested_on": "LOX IMVI"}, "EKVX": {"tested_on": "EKVX"}, "HT-29": {"tested_on": "HT-29"}}, "note": "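Following 48 hours of exposure in 96-well plates, responses at five concentrations were used to interpolate endpoints linearly. Abbreviation: GI50, concentration required for 50% inhibition of growth.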 Calls of active or inactive are those of the source. No stated cut-off is given here; in the data, active = GI50 up to about 1.1 µM and inactive = higher."}
{"molecule": "O=S1(=O)c2ccccc2N2C(c3ccccc3)=NOC2(c2ccccc2)CC1c1ccc(Br)cc1", "note": "(configuration not stated)", "values": [{"measurement": "GI50", "setting": "OVCAR-8", "value": "> 100 µM (inactive)"}, {"measurement": "GI50", "setting": "SK-MEL-28", "value": "> 100 µM (inactive)"}, {"measurement": "GI50", "setting": "NCI-H522", "value": "> 100 µM (inactive)"}, {"measurement": "GI50", "setting": "SW-620", "value": "> 100 µM (inactive)"}, {"measurement": "GI50", "setting": "A549", "value": "> 100 µM (inactive)"}, {"measurement": "GI50", "setting": "Hs-578T", "value": "> 100 µM (inactive)"}, {"measurement": "GI50", "setting": "M14", "value": "95.7 µM (inactive)"}, {"measurement": "GI50", "setting": "MCF7", "value": "> 100 µM (inactive)"}, {"measurement": "GI50", "setting": "IGROV-1", "value": "> 100 µM (inactive)"}, {"measurement": "GI50", "setting": "MDA-N", "value": "> 100 µM (inactive)"}, {"measurement": "GI50", "setting": "SF-295", "value": "> 100 µM (inactive)"}, {"measurement": "GI50", "setting": "SN12C", "value": "> 100 µM (inactive)"}, {"measurement": "GI50", "setting": "HOP-92", "value": "32.4 µM (inactive)"}, {"measurement": "GI50", "setting": "OVCAR-3", "value": "> 100 µM (inactive)"}, {"measurement": "GI50", "setting": "K562", "value": "> 100 µM (inactive)"}, {"measurement": "GI50", "setting": "BT-549", "value": "> 100 µM (inactive)"}, {"measurement": "GI50", "setting": "HCT-15", "value": "> 100", "unit": "µM"}, {"measurement": "GI50", "setting": "SNB-75", "value": "> 100 µM (inactive)"}, {"measurement": "GI50", "setting": "SK-MEL-2", "value": "> 100 µM (inactive)"}, {"measurement": "GI50", "setting": "HCT-116", "value": "> 100 µM (inactive)"}, {"measurement": "GI50", "setting": "ACHN", "value": "> 100 µM (inactive)"}, {"measurement": "GI50", "setting": "MDA-MB-231", "value": "> 100 µM (inactive)"}, {"measurement": "GI50", "setting": "SF-268", "value": "> 100 µM (inactive)"}, {"measurement": "GI50", "setting": "SF-539", "value": "> 100 µM (inactive)"}, {"measurement": "GI50", "setting": "SK-OV-3", "value": "> 100 µM (inactive)"}, {"measurement": "GI50", "setting": "A498", "value": "> 100 µM (inactive)"}, {"measurement": "GI50", "setting": "CCRF-CEM", "value": "> 100 µM (inactive)"}, {"measurement": "GI50", "setting": "NCI/ADR-RES", "value": "> 100 µM (inactive)"}, {"measurement": "GI50", "setting": "UACC-62", "value": "> 100 µM (inactive)"}, {"measurement": "GI50", "setting": "U-251", "value": "> 100 µM (inactive)"}, {"measurement": "GI50", "setting": "OVCAR-5", "value": "> 100 µM (inactive)"}, {"measurement": "GI50", "setting": "PC-3", "value": "> 100 µM (inactive)"}, {"measurement": "GI50", "setting": "MDA-MB-435", "value": "> 100 µM (inactive)"}, {"measurement": "GI50", "setting": "NCI-H226", "value": "> 100 µM (inactive)"}, {"measurement": "GI50", "setting": "NCI-H23", "value": "> 100 µM (inactive)"}, {"measurement": "GI50", "setting": "DU-145", "value": "> 100 µM (inactive)"}, {"measurement": "GI50", "setting": "HL-60", "value": "> 100 µM (inactive)"}, {"measurement": "GI50", "setting": "UO-31", "value": "> 100 µM (inactive)"}, {"measurement": "GI50", "setting": "RXF 393", "value": "> 100 µM (inactive)"}, {"measurement": "GI50", "setting": "SK-MEL-5", "value": "> 100 µM (inactive)"}, {"measurement": "GI50", "setting": "UACC-257", "value": "> 100 µM (inactive)"}, {"measurement": "GI50", "setting": "COLO 205", "value": "> 100 µM (inactive)"}, {"measurement": "GI50", "setting": "HOP-62", "value": "> 100 µM (inactive)"}, {"measurement": "GI50", "setting": "Malme-3M", "value": "> 100 µM (inactive)"}, {"measurement": "GI50", "setting": "OVCAR-4", "value": "> 100 µM (inactive)"}, {"measurement": "GI50", "setting": "TK-10", "value": "> 100 µM (inactive)"}, {"measurement": "GI50", "setting": "SNB-19", "value": "> 100 µM (inactive)"}, {"measurement": "GI50", "setting": "KM12", "value": "> 100 µM (inactive)"}, {"measurement": "GI50", "setting": "T47D", "value": "> 100 µM (inactive)"}, {"measurement": "GI50", "setting": "SR", "value": "> 100 µM (inactive)"}, {"measurement": "GI50", "setting": "NCI-H460", "value": "> 100 µM (inactive)"}, {"measurement": "GI50", "setting": "786-0", "value": "> 100 µM (inactive)"}, {"measurement": "GI50", "setting": "HCC 2998", "value": "> 100 µM (inactive)"}, {"measurement": "GI50", "setting": "MOLT-4", "value": "> 100 µM (inactive)"}, {"measurement": "GI50", "setting": "LOX IMVI", "value": "> 100 µM (inactive)"}, {"measurement": "GI50", "setting": "EKVX", "value": "> 100 µM (inactive)"}, {"measurement": "GI50", "setting": "HT-29", "value": "> 100 µM (inactive)"}]}
